Measured values as given in patent US12729377B2, “RNAi agents and compositions for inhibiting expression of angiopoietin-like 3 (ANGPTL3), and methods of use” (Arrowhead Pharmaceuticals, Inc., priority 2017, dated 2026).
In the oligonucleotide strings, read from the 5' end, every base follows the letter of its sugar. An asterisk marks phosphorothioate; unmarked linkages are phosphodiester. Other units and linkages are bracketed, terminal groups are in braces. A string of capitals states the bases alone. {NAG37} = tridentate N-acetyl-galactosamine targeting ligand, structure (NAG37)s; [invAb] = inverted abasic unit; m = 2'-O-methyl; f = 2'-fluoro

Legend:
[1] = system: ANGPTL3 gene; assay: Example 3: serum HDL in mice; format: in vivo
Method: (§1) To assess the in vivo activity of ANGPTL3 RNAi agents that are designed to target positions 921 and 922 on the ANGPTL3 gene, six- to eight-week-old female C57bl/6 mice were used. Pre-dose serum samples were taken at day −1 after a four hour fast. At day 1, each mouse was given a single subcutaneous administration of 200 μl containing either 1 mg/kg (mpk) of an ANGPTL3 RNAi agent in D5W (dextrose in 5% water), or control (D5W) with no RNAi agent, according to the dosing groups recited in Table 12.
(§2) Each of the RNAi agents included a modified sequence and an N-acetyl-galactosamine-containing targeting ligand conjugated to the 5′ terminal end of the sense strand. (See Tables 3, 4, and 5 for modified sequences and targeting ligand structures). The injections were performed between the skin and muscle (i.e. subcutaneous injections) into the loose skin over the neck and shoulder area. Three (3) mice in each group were tested (n=3). […] Mice were fasted for four hours prior to each collection. ANGPTL3 protein levels in serum were measured by ELISA assay (R&D Systems), according to the manufacturer's recommendations. Triglycerides, high-density lipoprotein (HDL), and total cholesterol in serum were measured on a Cobas® Integra 400 (Roche Diagnostics), according to the manufacturer's recommendations.
(§3) The ANGPTL3 protein levels, triglyceride levels, HDL levels, and total cholesterol levels for each animal were normalized. For normalization, the level of ANGPTL3 protein, triglyceride, HDL, and total cholesterol, respectively, for each animal at a time point, was divided by the pre-treatment level of expression in that animal (in this case at day −1) to determine the ratio of expression “normalized to pre-treatment.” Expression at a specific time point was then normalized to the D5W control group by dividing the “normalized to pre-treatment” ratio for an individual animal by the mean “normalized to pretreatment” ratio of all mice in the D5W control group.

[2] = system: ANGPTL3 gene; assay: Example 3: serum triglycerides in mice; format: in vivo
Method: as §1, §2, §3

[3] = system: ANGPTL3 gene; assay: Example 3: serum total cholesterol in mice; format: in vivo
Method: as §1, §2, §3

[4] = system: ANGPTL3 gene; assay: Example 4: serum triglycerides in mice; format: in vivo
Method: (§4) To assess the in vivo activity of ANGPTL3 RNAi agents that are designed to target additional positions on the ANGPTL3 gene, six- to eight-week-old female C57bl/6 mice were used. Pre-dose serum samples were taken at day −1 after a four hour fast. At day 1, each mouse was given a single subcutaneous administration of 200 μl containing either 1 mg/kg (mpk) or 0.5 mg/kg (mpk) of an ANGPTL3 RNAi agent in D5W (dextrose in 5% water), or control (D5W) with no RNAi agent, according to the dosing groups recited in Table 17.
(§5) Each of the RNAi agents included a modified sequence and an N-acetyl-galactosamine-containing targeting ligand conjugated to the 5′ terminal end of the sense strand. (See Tables 3, 4, and 5 for modified sequences and targeting ligand structures). The injections were performed between the skin and muscle (i.e. subcutaneous injections) into the loose skin over the neck and shoulder area. Three (3) mice in each group were tested (n=3). Serum was collected on days 8, 15, 22, 29, and day 43 (Groups 1-3, 9, and 11-13 only). Mice were fasted for four hours prior to each collection. ANGPTL3 protein levels in serum were measured by ELISA assay (R&D Systems), according to the manufacturer's recommendations. Triglycerides, high-density lipoprotein (HDL), and total cholesterol in serum were measured on a Cobas® Integra 400 (Roche Diagnostics), according to the manufacturer's recommendations.
as §3

[5] = system: ANGPTL3 gene; assay: Example 4: serum HDL in mice; format: in vivo, C57bl/6 mice
Method: as §4, §5, §3

[6] = system: ANGPTL3 protein; assay: Example 7: serum ANGPTL3 protein by ELISA in mice; format: in vivo, C57bl/6 mice; parameters: key: ratio: (level/pre-treatment day -1 level) ÷ mean of D5W control group
Method: To further assess the in vivo activity of additional ANGPTL3 RNAi agents that are designed to target position 304 on the ANGPTL3 gene, six- to eight-week-old female C57bl/6 mice were used. Pre-dose serum samples were taken at day −1 after a four hour fast. At day 1, each mouse was given a single subcutaneous administration of 200 μl containing 0.5 mg/kg (mpk) of an ANGPTL3 RNAi agent in D5W (dextrose in 5% water), or control (D5W) with no RNAi agent, according to the dosing groups recited in Table 31.
as §5, with “22,” for “22, 29,”, “29.” for “day 43 (Groups 1-3, 9, and 11-13 only).”, “Triglycerides, total cholesterol,” for “Triglycerides,”, “low-density lipoprotein (LDL)” for “total cholesterol”
The ANGPTL3 protein levels, triglyceride levels, total cholesterol levels, HDL levels, and LDL levels for each animal were normalized. For normalization, the level of ANGPTL3 protein, triglyceride, HDL, and total cholesterol, respectively, for each animal at a time point, was divided by the pre-treatment level of expression in that animal (in this case at day −1) to determine the ratio of expression “normalized to pre-treatment.” Expression at a specific time point was then normalized to the D5W control group by dividing the “normalized to pre-treatment” ratio for an individual animal by the mean “normalized to pretreatment” ratio of all mice in the D5W control group.

[7] = Day 8, 1.0 mg/kg single subcutaneous dose on day 1, female C57bl/6 mice
[8] = Day 15, 1.0 mg/kg single subcutaneous dose on day 1, female C57bl/6 mice
[9] = Day 22, 1.0 mg/kg single subcutaneous dose on day 1, female C57bl/6 mice
[10] = Day 29, 1.0 mg/kg single subcutaneous dose on day 1, female C57bl/6 mice
[11] = Day 43, 1.0 mg/kg single subcutaneous dose on day 1, female C57bl/6 mice
[12] = Day 8, 0.5 mg/kg single SC injection on day 1, n=3
[13] = Day 8, 1.0 mg/kg single SC injection on day 1, n=3
[14] = Day 15, 0.5 mg/kg single SC injection on day 1, n=3
[15] = Day 15, 1.0 mg/kg single SC injection on day 1, n=3
[16] = Day 22, 0.5 mg/kg single SC injection on day 1, n=3
[17] = Day 22, 1.0 mg/kg single SC injection on day 1, n=3
[18] = Day 29, 0.5 mg/kg single SC injection on day 1, n=3
[19] = Day 29, 1.0 mg/kg single SC injection on day 1, n=3
[20] = Day 43, 1.0 mg/kg single SC injection on day 1, n=3

Substance | Avg HDL (Average HDL Normalized to Pre-Treatment and Control) [1, 7] | Avg HDL (Average HDL Normalized to Pre-Treatment and Control) [1, 8] | Avg HDL (Average HDL Normalized to Pre-Treatment and Control) [1, 9] | Avg HDL (Average HDL Normalized to Pre-Treatment and Control) [1, 10] | Avg TG (Average Triglycerides Normalized to Pre-Treatment and Control) [2, 7] | Avg TG (Average Triglycerides Normalized to Pre-Treatment and Control) [2, 8] | Avg TG (Average Triglycerides Normalized to Pre-Treatment and Control) [2, 9] | Avg TG (Average Triglycerides Normalized to Pre-Treatment and Control) [2, 10] | Avg Total Chol (Average Total Cholestrol Normalized to Pre-Treatment and Control) [3, 7] | Avg Total Chol (Average Total Cholestrol Normalized to Pre-Treatment and Control) [3, 8] | Avg Total Chol (Average Total Cholestrol Normalized to Pre-Treatment and Control) [3, 9] | Avg Total Chol (Average Total Cholestrol Normalized to Pre-Treatment and Control) [3, 10] | Avg TG (Average Triglycerides Normalized to Pre-Treatment and Control) [4, 7] | Avg TG (Average Triglycerides Normalized to Pre-Treatment and Control) [4, 8] | Avg TG (Average Triglycerides Normalized to Pre-Treatment and Control) [4, 9] | Avg TG (Average Triglycerides Normalized to Pre-Treatment and Control) [4, 10] | Avg TG (Average Triglycerides Normalized to Pre-Treatment and Control) [4, 11] | Avg HDL, normalized to pre-treatment and control [5, 13] | Avg HDL, normalized to pre-treatment and control [5, 15] | Avg HDL, normalized to pre-treatment and control [5, 17] | also measured
AD05307: RNAi agent duplex: antisense AM07001-AS, sense AM07000-SS (chain 1 mU*fU*mU*fGmAfAmUfUmAfAmUfGmUfCmCfAmUfGmGmG*mC; chain 2 {NAG37}*[invAb]*mGmCmCmCmAmUmGmGfAfCfAmUmUmAmAmUmUmCmAmAmA*[invAb]) | 0.916 | 0.856 | 0.913 | 1.053 | 0.786 | 0.692 | 0.903 | 0.852 | 0.940 | 0.840 | 0.948 | 1.088 |  |  |  |  |  |  |  |  | 
AD05308: RNAi agent duplex: antisense AM07003-AS, sense AM07002-SS (chain 1 mU*fG*mU*fUmGfAmAfUmUfAmAfUmGfUmCfCmAfUmGfG*mA; chain 2 {NAG37}*[invAb]*mUmCmCmAmUmGmGmAfCfAfUmUmAmAmUmUmCmAmAmCmA*[invAb]) | 0.838 | 0.754 | 0.739 | 0.953 | 0.952 | 0.749 | 0.854 | 1.009 | 0.872 | 0.768 | 1.048 | 0.978 | 0.749 | 1.164 | 1.152 | 1.021 | 0.994 | 0.904 | 0.801 | 0.728 | Avg TG (Average Triglycerides Normalized to Pre-Treatment and Control) ([4]; Day 8, 0.5 mg/kg single subcutaneous dose on day 1, female C57bl/6 mice): 1.330; Avg TG (Average Triglycerides Normalized to Pre-Treatment and Control) ([4]; Day 15, 0.5 mg/kg single subcutaneous dose on day 1, female C57bl/6 mice): 1.598; Avg TG (Average Triglycerides Normalized to Pre-Treatment and Control) ([4]; Day 22, 0.5 mg/kg single subcutaneous dose on day 1, female C57bl/6 mice): 1.732; Avg TG (Average Triglycerides Normalized to Pre-Treatment and Control) ([4]; Day 29, 0.5 mg/kg single subcutaneous dose on day 1, female C57bl/6 mice): 1.446; Avg TG (Average Triglycerides Normalized to Pre-Treatment and Control) ([4]; Day 43, 0.5 mg/kg single subcutaneous dose on day 1, female C57bl/6 mice): 1.547; Avg HDL, normalized to pre-treatment and control [5, 12]: 1.007; Avg HDL, normalized to pre-treatment and control [5, 14]: 0.770; Avg HDL, normalized to pre-treatment and control [5, 16]: 0.921; Avg HDL, normalized to pre-treatment and control [5, 18]: 0.934; Avg HDL, normalized to pre-treatment and control [5, 19]: 0.824; Avg HDL, normalized to pre-treatment and control ([5]; Day 43, 0.5 mg/kg single SC injection on day 1, n=3): 1.101; Avg HDL, normalized to pre-treatment and control [5, 20]: 1.096; Avg ANGPTL3, normalized to pre-treatment and control [6, 12]: 0.447; Avg ANGPTL3, normalized to pre-treatment and control [6, 14]: 0.388; Avg ANGPTL3, normalized to pre-treatment and control [6, 16]: 0.440; Avg ANGPTL3, normalized to pre-treatment and control [6, 18]: 0.523
AD05488: RNAi agent duplex: antisense AM07235-AS, sense AM07234-SS (antisense mU*fA*mC*fUmGfAmUfCmAfAmAfUmAfUmGfUmUfGmAfG*mC; sense {NAG37}*[invAb]*mGmCmUmCmAmAmCmAfUfAfUmUmUmGmAmUmCmAmGmUmA*[invAb]) |  |  |  |  |  |  |  |  |  |  |  |  | 0.624 | 0.795 | 0.837 | 0.721 | 0.901 | 0.839 | 0.644 | 0.727 | Avg HDL, normalized to pre-treatment and control [5, 19]: 0.771; Avg HDL, normalized to pre-treatment and control [5, 20]: 0.833; Avg ANGPTL3, normalized to pre-treatment and control [6, 12]: 0.339; Avg ANGPTL3, normalized to pre-treatment and control [6, 14]: 0.379; Avg ANGPTL3, normalized to pre-treatment and control [6, 16]: 0.346; Avg ANGPTL3, normalized to pre-treatment and control [6, 18]: 0.469
